Data as given in patent US20250388604A1, “Compounds and Their Use as PDE4 Activators” (Mironid Limited, priority 2022, published 2025).

What was measured:
[1] = system: m-IMCD3 cells expressing PDE4 long forms; test: cAMP levels in PGE2-stimulated 3D m-IMCD3 cell culture media; format: cell-based; conditions: Mus musculus, mIMCD3, compared to 100% for (DMSO + PGE2), read-out: cAMP level (% of PGE2-stimulated); for activity at 3 µM: 3 μM test compound; for activity at 10 µM: 10 μM test compound
Procedure: HEK 293 and MDCK cells (Public Health England, Cell Culture Collections) were maintained in Dulbecco's Modified Eagle's Medium (DMEM) supplemented with 10% (v/v) fetal bovine serum (FBS) (Seralab), 2 mM L-glutamine and 100 U/mL penicillin streptomycin cocktail (ThermoFisher); termed complete media. Clonal HEK 293 cell lines were maintained in complete media supplemented with 0.6 mg/ml G418 (Enzo Life Sciences). Mouse inner medullary collecting duct (m-IMCD3) cells [American Type Culture Collection (ATCC)] were maintained in media consisting of DMEM/Hams F-12 50/50 Mix (DMEM F12; Corning) supplemented with penicillin streptomycin cocktail (100 U/mL) and FBS (10% v/v) (DMEM F12-10% FBS).
Activation of intracellular PDE4 long forms leads to a reduction of both intracellular cAMP and externalised cAMP (Omar et al., PNAS 116: 13320-13329, 2019). This reduction may be measured in the cell culture media supernatant of 3D cystic cell cultures, such as in the m-IMCD3 cell cyst suppression assay described in Experiment 3.
Following the completion of the m-IMCD3 cell cyst suppression assay (Experiment 3), the cAMP level in the assay media from individual or pooled assay wells was measured using a cAMP ELISA kit (Enzo Life Sciences) or a LANCE Ultra cAMP kit (PerkinElmer) according to the manufacturer's instructions.

m-IMCD3 cells = test: Inhibition of PGE2-stimulated in vitro cyst formation in m-IMCD3 cells; format: cell-based, mouse; conditions: Mus musculus, mIMCD3, 144 h, mean cyst area, 100% for (DMSO + PGE2) and 0% for DMSO control, 6 days of culture; for activity at 3 µM: read-out: % Cyst area after incubation with 3 μM test compound; for activity at 10 µM: read-out: % Cyst area after incubation with 10 μM test compound
Procedure, shortened: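 m-IMCD3 cells embedded in collagen I/Matrigel 3D culture; 18–24 h after plating, compound (0.1% DMSO final) plus PGE2 (100 nM final) added, replenished after 2 or 3 days. After 6 days, z-stack imaging gave mean cyst area, normalized to DMSO+PGE2 (100%) and DMSO (0%).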

SMILES: O=C(CC1CCCC1)N1CCc2nc(N3C4CCCC3CNC4)sc2C1 [Example 273, 1-(2-(3,9-diazabicyclo[3.3.1]nonan-9-yl)-6,7-dihydrothiazolo[5,4-c]pyridin-5(4H)-yl)-2-cyclopentylethan-1-one]
- activity at 3 µM [1]: 58%
- activity at 3 µM (m-IMCD3 cells): -11%

SMILES: CC(C)N1CC2CCC(C1)N2c1nc2c(s1)CN(C(=O)CC1CCCC1)CC2 [Example 290, 2-cyclopentyl-1-(2-(3-isopropyl-3,8-diazabicyclo[3.2.1]octan-8-yl)-6,7-dihydrothiazolo[5,4-c]pyridin-5(4H)-yl)ethan-1-one]
- activity at 3 µM [1]: 35%
- activity at 3 µM (m-IMCD3 cells): -9%

SMILES: O=S(=O)(Cc1ccccc1)N1CCc2nc(N3C4CCC3CNC4)sc2C1 [Example 288, 5-(benzylsulfonyl)-2-(3,8-diazabicyclo[3.2.1]octan-8-yl)-4,5,6,7-tetrahydrothiazolo[5,4-c]pyridine]
- activity at 3 µM [1]: 34%
- activity at 3 µM (m-IMCD3 cells): 7%

SMILES: CC(C)C(=O)N1Cc2sc(N3C4CCC3CNC4)nc2CC1(C)C [Example 268, 1-(2-(3,8-diazabicyclo[3.2.1]octan-8-yl)-6,6-dimethyl-6,7-dihydrothiazolo[5,4-c]pyridin-5(4H)-yl)-2-methylpropan-1-one]
- activity at 3 µM [1]: 39%
- activity at 3 µM (m-IMCD3 cells): 1%

SMILES: CCN1CCN(c2nc3c(s2)CN(S(=O)(=O)Cc2ccc(F)cc2)CC3)CC1 [Example 304, 2-(4-ethylpiperazin-1-yl)-5-((4-fluorobenzyl)sulfonyl)-4,5,6,7-tetrahydrothiazolo[5,4-c]pyridine]
- activity at 3 µM [1]: 47%
- activity at 3 µM (m-IMCD3 cells): 13%

SMILES: O=C(N1CCn2nc(N3C4CCC3CNC4)cc2C1)C(F)(F)c1ccccc1 [Example 126, 1-(2-(3,8-diazabicyclo[3.2.1]octan-8-yl)-6,7-dihydropyrazolo[1,5-a]pyrazin-5(4H)-yl)-2,2-difluoro-2-phenylethan-1-one]
- activity at 3 µM [1]: 39%
- activity at 10 µM (m-IMCD3 cells): -10%

SMILES: O=C(N[C@H]1CCOc2ccccc21)N1CCc2nc(N3C4CCC3CNC4)sc2C1 [Example 293, 2-(3,8-diazabicyclo[3.2.1]octan-8-yl)-N—((S)-chroman-4-yl)-6,7-dihydrothiazolo[5,4-c]pyridine-5(4H)-carboxamide]
- activity at 3 µM [1]: 36%
- activity at 3 µM (m-IMCD3 cells): 4%

SMILES: O=C(CC1CCCC1)N1CCc2nc(N3C[C@H]4C[C@@H]3CN4)sc2C1 [Example 279, 1-(2-((1R,4R)-2,5-diazabicyclo[2.2.1]heptan-2-yl)-6,7-dihydrothiazolo[5,4-c]pyridin-5(4H)-yl)-2-cyclopentylethan-1-one]
- activity at 3 µM [1]: 27%
- activity at 3 µM (m-IMCD3 cells): 19%

SMILES: O=S(=O)(Cc1ccc(F)cc1)N1CCc2nc(N3C4CCC3CNC4)sc2C1 [Example 285, 2-(3,8-diazabicyclo[3.2.1]octan-8-yl)-5-((4-fluorobenzyl)sulfonyl)-4,5,6,7-tetrahydrothiazolo[5,4-c]pyridine]
- activity at 3 µM [1]: 35%
- activity at 3 µM (m-IMCD3 cells): -3%

SMILES: O=C(NC1CCCC1)N1Cc2nc(N3C4CCC3CNC4)sc2C1 [Example 68, 2-(3,8-diazabicyclo[3.2.1]octan-8-yl)-N-cyclopentyl-4,6-dihydro-5H-pyrrolo[3,4-d]thiazole-5-carboxamide]
- activity at 3 µM [1]: 19%
- activity at 10 µM (m-IMCD3 cells): -4%

SMILES: O=C(CC1CCCC1)N1CCc2nc(N3C4CCC3CNC4)sc2C1 [Example 1, 1-(2-(3,8-diazabicyclo[3.2.1]octan-8-yl)-6,7-dihydrothiazolo[5,4-c]pyridin-5(4H)-yl)-2-cyclopentylethan-1-one]
- activity at 10 µM [1]: 14%
- activity at 10 µM (m-IMCD3 cells): -5%

SMILES: CC(C)(C)CC(=O)N1CCc2nc(N3C4CCC3CNC4)sc2C1 [Example 10, 1-(2-(3,8-diazabicyclo[3.2.1]octan-8-yl)-6,7-dihydrothiazolo[5,4-c]pyridin-5(4H)-yl)-3,3-dimethylbutan-1-one]
- activity at 10 µM [1]: 38%
- activity at 10 µM (m-IMCD3 cells): -3%

SMILES: O=C(C1COc2ccccc21)N1CCc2nc(N3C4CCC3CNC4)sc2C1 (stereo not shown) [Example 184, (2-(3,8-diazabicyclo[3.2.1]octan-8-yl)-6,7-dihydrothiazolo[5,4-c]pyridin-5(4H)-yl)(2,3-dihydrobenzofuran-3-yl)methanone]
- activity at 3 µM [1]: 58%
- activity at 3 µM (m-IMCD3 cells): 15%

SMILES: O=C([C@H](O)C1CCCC1)N1CCc2nc(N3C4CCC3CNC4)sc2C1 [Example 171, (2R)-1-(2-(3,8-diazabicyclo[3.2.1]octan-8-yl)-6,7-dihydrothiazolo[5,4-c]pyridin-5(4H)-yl)-2-cyclopentyl-2-hydroxyethan-1-one]
- activity at 3 µM [1]: 56%
- activity at 3 µM (m-IMCD3 cells): 6%

SMILES: O=C(CC1CCCC1)N1CCc2nc(C3CCNCC3)sc2C1 [Example 118, 2-cyclopentyl-1-(2-(piperidin-4-yl)-6,7-dihydrothiazolo[5,4-c]pyridin-5(4H)-yl)ethan-1-one]
- activity at 3 µM [1]: 52%
- activity at 10 µM (m-IMCD3 cells): 5%

SMILES: O=C(CC1CCCC1)N1CCc2nc(N3CC4CCCC(C3)N4)sc2C1 [Example 280, 1-(2-(3,9-diazabicyclo[3.3.1]nonan-3-yl)-6,7-dihydrothiazolo[5,4-c]pyridin-5(4H)-yl)-2-cyclopentylethan-1-one]
- activity at 3 µM [1]: 33%
- activity at 3 µM (m-IMCD3 cells): -10%

SMILES: O=C(CC1CCCC1)N1CCc2nc(N3CC4CCC(C3)N4)sc2C1 [Example 276, 1-(2-(3,8-diazabicyclo[3.2.1]octan-3-yl)-6,7-dihydrothiazolo[5,4-c]pyridin-5(4H)-yl)-2-cyclopentylethan-1-one]
- activity at 3 µM [1]: 41%
- activity at 3 µM (m-IMCD3 cells): 13%

SMILES: CCN1CC2CCC(C1)N2c1nc2c(s1)CN(C(=O)NCc1ccc(F)cc1)CC2 [Example 300, 2-(3-ethyl-3,8-diazabicyclo[3.2.1]octan-8-yl)-N-(4-fluorobenzyl)-6,7-dihydrothiazolo[5,4-c]pyridine-5(4H)-carboxamide]
- activity at 3 µM [1]: 48%
- activity at 3 µM (m-IMCD3 cells): -3%

SMILES: CCN1CC2CCC(C1)N2c1nc2c(s1)CN(C(=O)CC1CCCC1)CC2 [Example 291, 2-cyclopentyl-1-(2-(3-ethyl-3,8-diazabicyclo[3.2.1]octan-8-yl)-6,7-dihydrothiazolo[5,4-c]pyridin-5(4H)-yl)ethan-1-one]
- activity at 3 µM [1]: 45%
- activity at 3 µM (m-IMCD3 cells): 3%

SMILES: O=C(c1ccc(C(F)(F)F)nc1)N1CCc2nc(N3C4CCC3CNC4)sc2C1 [Example 241, (2-(3,8-diazabicyclo[3.2.1]octan-8-yl)-6,7-dihydrothiazolo[5,4-c]pyridin-5(4H)-yl)(6-(trifluoromethyl)pyridin-3-yl)methanone]
- activity at 3 µM [1]: 43%
- activity at 3 µM (m-IMCD3 cells): 4%

SMILES: CCCN1CC2CCC(C1)N2c1nc2c(s1)CN(C(=O)COc1ccc(F)cc1)CC2 [Example 303, 2-(4-fluorophenoxy)-1-(2-(3-propyl-3,8-diazabicyclo[3.2.1]octan-8-yl)-6,7-dihydrothiazolo[5,4-c]pyridin-5(4H)-yl)ethan-1-one]
- activity at 3 µM [1]: 55%
- activity at 3 µM (m-IMCD3 cells): 0%

SMILES: CC1(C)CN(C(=O)CC2CCC3(CC2)COC3)Cc2sc(N3C4CCC3CNC4)nc21 [Example 260, 1-(2-(3,8-diazabicyclo[3.2.1]octan-8-yl)-7,7-dimethyl-6,7-dihydrothiazolo[5,4-c]pyridin-5(4H)-yl)-2-(2-oxaspiro[3.5]nonan-7-yl)ethan-1-one]
- activity at 3 µM [1]: 52%
- activity at 3 µM (m-IMCD3 cells): 10%

SMILES: CCN1CC2CCC(C1)N2c1nc2c(s1)CN(S(=O)(=O)Cc1ccc(F)cc1)CC2 [Example 286, 2-(3-ethyl-3,8-diazabicyclo[3.2.1]octan-8-yl)-5-((4-fluorobenzyl)sulfonyl)-4,5,6,7-tetrahydrothiazolo[5,4-c]pyridine]
- activity at 3 µM [1]: 52%
- activity at 3 µM (m-IMCD3 cells): -2%

SMILES: CC(C)(C)CC(=O)N1CCc2sc(N3C4CCC3CNC4)nc2C1 [Example 282, 1-(2-(3,8-diazabicyclo[3.2.1]octan-8-yl)-6,7-dihydrothiazolo[4,5-c]pyridin-5(4H)-yl)-3,3-dimethylbutan-1-one]
- activity at 3 µM [1]: 35%
- activity at 3 µM (m-IMCD3 cells): 3%

SMILES: CC(C)CC(=O)N1Cc2sc(N3C4CCC3CNC4)nc2C(C)(C)C1 [Example 257, 1-(2-(3,8-diazabicyclo[3.2.1]octan-8-yl)-7,7-dimethyl-6,7-dihydrothiazolo[5,4-c]pyridin-5(4H)-yl)-3-methylbutan-1-one]
- activity at 3 µM [1]: 36%
- activity at 3 µM (m-IMCD3 cells): -3%

SMILES: CCN1CC2CCC(C1)N2c1nc2c(s1)CN(C(=O)COc1ccc(F)cc1)CC2 [Example 302, 1-(2-(3-ethyl-3,8-diazabicyclo[3.2.1]octan-8-yl)-6,7-dihydrothiazolo[5,4-c]pyridin-5(4H)-yl)-2-(4-fluorophenoxy)ethan-1-one]
- activity at 3 µM [1]: 48%
- activity at 3 µM (m-IMCD3 cells): 5%
